What all share (assay): NCI tumour cell line growth inhibition, 48 h
In assay [1] the test system is 786-0 renal.
Assay [2] has as its system MDA-MB-435.
In assay [3] the test system is OVCAR-5 ovarian.
Assay [4] has as its system PC-3 prostate.
Assay [5] concerns SF-268 CNS.
The test system of assay [6] is SF-295 CNS.
In assay [7] the test system is SNB-19 CNS.
In assay [8] the test system is T-47D breast.
The subject of assay [9] is U251 CNS.
Assay [10] concerns UACC-62 melanoma.

“And” between values parts separate entries of the source, which are not always exact repeats. Equal values may be shown once.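 96-well plates; 48 h exposure; 5 concentrations. Endpoints by linear interpolation between flanking doses. Not reached: highest tested concentration assigned. GI50: concentration for 50% inhibition of growth. The concentration for full growth arrest is given as TGI.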 Where a SMILES comes first, the peptide text is derived from it. [ ]: non-standard residue; d: D form. The star is where a group is joined. ξ: configuration not given here. X3 = COc1ccc(C(N*)c2ccc(OC)cc2)cc1; NMeF = CN[C@@H](Cc1ccccc1)C(=O)O; NMeD = CN[C@@H](CC(=O)O)C(=O)O; NMeV = CN[C@H](C(=O)O)C(C)C; ξNMeV = CNC(C(=O)O)C(C)C; Boc = CC(C)(C)OC(=O)*; ξNMeA = CNC(C)C(=O)O; ξV = CC(C)C(N)C(=O)O

In the case of `COc1ccc(C(NC(=O)C[C@@H](C(=O)N(C)C(C)C(=O)O)N(C)C(=O)[C@@H]2CCCN2C(=O)[C@H](C(C)C)N(C)C(=O)C(C(C)C)N(C)C(=O)[C@H](Cc2ccccc2)N(C)C(=O)C(NC(=O)OC(C)(C)C)C(C)C)c2ccc(OC)cc2)cc1` (some centres undefined) (Boc-[ξV][NMeF][ξNMeV][NMeV]P[NMeD](X3)[ξNMeA]-OH), the GI50 is 17.9 µM in assay [1]; 17.3 µM in assay [3]; 15.1 µM in [5]; 17.5 µM in assay [7]; 19.4 µM in assay [9]; 0.803 µM in [10]. The TGI in assay [1] was 33.4 µM and 31.7 µM; in assay [2] it was 20 µM; in assay [3], > 37.5 µM and 31.5 µM; in assay [4], 37.5 µM; in [5], 31.9 µM and 28.6 µM; in [6] it was 30.2 µM and 32.8 µM. Also, the TGI in assay [7] is 37.5 µM and 33 µM; in assay [8], 36.7 µM; in assay [9], 23.6 µM and 35.7 µM; in [10] it was 12.5 µM and 20.9 µM.
Take `N#Cc1c[nH]n2c(N=Nc3ccc(Cl)cc3)c(O)nc12`: the GI50 in assay [1] was 51.6 µM; in [2], 44.3 µM; in assay [3], 84.9 µM; in assay [4], 23.1 µM; in assay [5], 20.6 µM; in assay [6], 30.1 µM. Further, the GI50 in assay [7] is 33.8 µM; in assay [8] it was 10.1 µM; in assay [9], 35.6 µM; in [10], 17.2 µM. Also, the TGI in [1] is greater than 100 µM; in assay [2] it was greater than 100 µM; in [3] it was greater than 100 µM; in [4], greater than 100 µM; in assay [5] it was 77.4 µM; in [6], greater than 100 µM. For the same compound, the TGI in [7] was greater than 100 µM; in assay [8], 56 µM; in [9], greater than 100 µM; in assay [10], 57 µM.
For the compound `O=CNc1ccc2c(c1)C(=O)c1ccccc1-2`, the TGI in assay [1], in assay [2], in assay [3], in assay [4], in assay [5] and in assay [6] was greater than 100 µM throughout. Moreover, the TGI in assay [7], in assay [8], in assay [9] and in assay [10] was greater than 100 µM in each case.
As to `CC(=O)CC(OC(C)=O)C1=CCC2C(CC1C)OC(=O)C2C` (centres undefined), the TGI in assay [1], in assay [2], in assay [3], in [4], in assay [5] and in assay [6] was greater than 100 µM throughout. For the same compound, the TGI in assay [7], in [8], in assay [9] and in assay [10] was greater than 100 µM in each case.
Turning to `CCCCCCCCCCn1cc[n+](C)c1`, the GI50 is 2.39 µM in [1]; 1.4 µM in assay [2]; 2.93 µM in assay [3]; 1.03 µM in assay [4]; 3.77 µM in [5]; 1.39 µM in [6]. Besides, the GI50 was 3.96 µM in [7], 1.61 µM in [8], 1.86 µM in assay [9] and 2.53 µM in assay [10]. The TGI is 18.1 µM in assay [1]; 8.64 µM in assay [2]; greater than 100 µM in assay [3]; 6.73 µM in assay [4]; 18.3 µM in [5]; 8.43 µM in assay [6]. Also, the TGI was 32.9 µM in assay [7], greater than 21.7 µM in assay [8], 19.1 µM in [9] and 10.6 µM in assay [10].
For the compound `Nc1n[nH]c2cccc(C#Cc3cccc(C(=O)Nc4ccc(CN5CCOCC5)c(C(F)(F)F)c4)c3)c12`, the GI50 was 2.79 µM in assay [1]; 2.22 µM in [2]; 2.52 µM in assay [3]; 2.16 µM in [4]; 2.72 µM in [5]; 2.03 µM in assay [6]. The GI50 in [7] was 3.36 µM; in [8], 1.18 µM; in assay [9], 2.75 µM; in assay [10], 1.12 µM. Also, the TGI was 7.74 µM in assay [1]; 10.5 µM in [2]; 19.8 µM in [3]; 7.79 µM in assay [4]; 13.3 µM in assay [5]; 6.1 µM in assay [6]. In addition, the TGI in assay [7] is 35.5 µM; in assay [8] it was 5.76 µM; in [9], 15.2 µM; in assay [10], 3.52 µM.
For `Cn1ccc2c3c(Oc4ccc(NC(N)=O)cc4)ccnc3ccc21`, the GI50 in assay [1], in assay [2], in assay [3], in assay [4], in [5] and in [6] was greater than 100 µM in each case. Moreover, the GI50 in assay [7], in assay [8], in assay [9] and in [10] was greater than 100 µM in each case. In addition, the TGI in assay [1], in [2], in [3], in assay [4], in [5] and in assay [6] was greater than 100 µM in each case. For the same compound, the TGI in assay [7], in assay [8], in assay [9] and in assay [10] was greater than 100 µM in each case.
On to `O=C(/C=C/c1ccc(O)cc1)c1ccc(O)cc1`, for which the TGI in assay [1] was greater than 100 µM; in [2], greater than 100 µM; in assay [3], greater than 76.3 µM; in assay [4], greater than 100 µM; in assay [5], 71.8 µM; in assay [6] it was greater than 96.7 µM. Also, the TGI was greater than 78.2 µM in assay [7], greater than 100 µM in assay [8], 46.6 µM in assay [9] and greater than 66.8 µM in [10].
In the case of `Nc1ccc(C2=NNC(=O)Cc3cc4c(cc32)OCCO4)cc1Cl`, the GI50 in [1] is 6.51 µM; in assay [2], 0.886 µM; in assay [3] it was 7.96 µM; in [4], 7.94 µM; in assay [5], 8.77 µM; in assay [6] it was 2.49 µM. Besides, the GI50 in assay [7] was 8.19 µM; in [8], 5.42 µM; in assay [9], 3.68 µM; in assay [10], 4.42 µM. The TGI in assay [1] is greater than 50 µM; in [2] it was 4.18 µM; in assay [3], greater than 50 µM; in [4], greater than 50 µM; in assay [5], greater than 50 µM; in assay [6] it was greater than 50 µM. For the same compound, the TGI in [7], in assay [8], in assay [9] and in assay [10] was greater than 50 µM in each case.
Turning to `O=C(O)c1nc2nc(Cl)c(Cl)nc2[nH]1`, the TGI in assay [1], in assay [2], in [3], in assay [4], in [5] and in [6] was greater than 100 µM each time. Further, the TGI in assay [7], in assay [8], in assay [9] and in assay [10] was greater than 100 µM in each case.
Take `O=S(=O)(c1ccccc1)N1CCN(S(=O)(=O)c2ccccc2)c2ccccc21`: the TGI in assay [1], in assay [2], in [3], in assay [4], in assay [5] and in assay [6] was greater than 100 µM throughout. The TGI in assay [7], in assay [8], in [9] and in [10] was greater than 100 µM throughout.
As to `CCOC(=S)SCC(=O)O`, the TGI in assay [1], in assay [2], in assay [3], in [4], in assay [5] and in assay [6] was greater than 100 µM each time. Besides, the TGI in assay [7], in assay [8], in assay [9] and in [10] was greater than 100 µM each time.
As for `CCCOc1cc2ccccc2cc1C(=O)Nc1nc(N)c2c(ccc3nccc32)[nH]1`, the GI50 was 0.0509 µM in assay [1]; 0.0133 µM in assay [2]; 0.911 µM in [3]; 0.0492 µM in assay [4]; 0.0658 µM in assay [5]; 0.0307 µM in [6]. Also, the GI50 was 0.0655 µM in [7], 0.499 µM in assay [8], 0.0527 µM in assay [9] and 0.0403 µM in assay [10]. Further, the TGI in [1] turned out to be 1.56 µM; in assay [2], 0.0432 µM; in assay [3] it was 2.98 µM; in assay [4], 2.22 µM; in [5], 2.86 µM; in [6] it was 1.26 µM. In addition, the TGI in assay [7] worked out at 2.08 µM; in [8], 3.17 µM; in assay [9], 1.4 µM; in assay [10], 1.96 µM.
On to `CCC(=C/[C@H](C)C/C=C/C(C)=C/[C@@H](C)C(=O)[C@@H](C)[C@H](O)[C@@H](C)CC)/C=C/[C@H]1OC(=O)C=C[C@@H]1C`, for which the GI50 in assay [1], in assay [2], in [3], in assay [4], in [5] and in assay [6] was less than 0.01 µM throughout. The GI50 in assay [7], in [8], in [9] and in [10] was less than 0.01 µM each time. The TGI is less than 0.0219 µM in [1]; less than 0.0184 µM in assay [2]; 3.04 µM in assay [4]; 1.72 µM in assay [5]; 1.43 µM in assay [6]; 2.12 µM in [7]. Further, the TGI is 4.88 µM in assay [8], 1.36 µM in [9] and 0.276 µM in [10].
Regarding `COC[C@H]1Cn2cc(-c3nc(Nc4ccnn4C)ncc3C)nc2C(=O)N1Cc1ccc(F)c(F)c1`, the GI50 was 88 µM in assay [1]; 0.186 µM in [2]; 0.103 µM in [3]; greater than 100 µM in [4]; 29.3 µM in assay [5]; greater than 100 µM in [6]. Also, the GI50 in assay [7] was greater than 100 µM; in assay [8], 65.5 µM; in [10], 0.0228 µM. Moreover, the TGI in [1], in assay [2], in assay [3], in [4], in [5] and in assay [6] was greater than 100 µM each time. Further, the TGI in assay [7], in assay [8], in assay [9] and in assay [10] was greater than 100 µM in each case.
Consider `CN(C)CC1CC/C(=C\c2ccc(O)cc2)C1=O` (centres undefined), for which the TGI was found to be 4.91 µM in assay [1]; 10.8 µM in assay [2]; 31.6 µM in assay [3]; 20.2 µM in [4]; 23.1 µM in [5]; 34.5 µM in assay [6]. In addition, the TGI in assay [7] is 31.3 µM; in assay [8], 5.34 µM; in [9], 12.5 µM; in assay [10], 15.5 µM.
Regarding `c1ccc(Sc2ncnc3ccccc23)cc1`, the GI50 was 14.9 µM in assay [1]; 8.19 µM in [2]; 19.2 µM in assay [3]; 12.3 µM in [4]; 13.9 µM in assay [5]; 14.2 µM in [6]. Besides, the GI50 in assay [7] is 18.6 µM; in assay [8] it was 9.72 µM; in [9], 12.9 µM; in [10] it was 9.06 µM. For the same compound, the TGI in [1] was 34.5 µM; in [2], 32.5 µM; in assay [3] it was 37.2 µM; in [4], 60 µM; in [5] it was 41.7 µM; in assay [6], 45.6 µM. For the same compound, the TGI in [7] stood at 51.5 µM; in assay [8] it was 28.4 µM; in assay [9], 31.8 µM; in [10], 23.5 µM.
As to `Nc1ccccc1SC(CC(=O)c1ccccc1)c1cccc([N+](=O)[O-])c1` (centres undefined), the GI50 in assay [1] was 18.9 µM; in assay [2] it was 16.3 µM; in assay [3] it was 17.4 µM; in assay [4], 12.5 µM; in assay [5], 16.3 µM; in assay [6], 16.2 µM. The GI50 is 14.3 µM in assay [7], 12.1 µM in [8], 7.51 µM in [9] and 13.8 µM in assay [10]. For the same compound, the TGI in assay [1] worked out at 33.3 µM; in assay [2], 30.4 µM; in assay [3] it was 32.2 µM; in assay [4], 25.5 µM; in assay [5], 31.3 µM; in assay [6], 30.3 µM. Further, the TGI in assay [7] was 27.4 µM; in assay [8], 36.2 µM; in assay [9], 20.7 µM; in [10] it was 26.9 µM.
